Source: patent US20220347167A1, “A NEW TREATMENT FOR MEIBOMIAN GLAND DYSFUNCTION” (The Schepens Eye Research Institute, Inc., priority 2019, published 2022)

System: HIF1α
Assay: HIF1α expression in CoCl2-stimulated HepG2 cells (positive control for HIF1α antibody)
Assay type: cell-based, human
Details: 4 hours of CoCl2 treatment
Protocol: After culture in DMEM/F12+10% FBS under normoxic conditions for 7 days, cells were exposed to 21% O2, 1% O2 and 10 μM Roxa, alone or in combination, for an additional 6 hours. The cells were lysed in 2× Laemmli sample buffer (Bio-Rad Laboratories, Hercules, Calif.) and sonicated to extract nuclear protein [Andersen et al. (2002) Current biology: CB 12:1-11]. Human hepatocellular carcinoma cell lines (HepG2 cells) (America Type Culture Collection, Manassas, Va.), which express high concentration of HIF1α under CoCl2 stimulation for 4 hours [Yoo et al. (2014) Journal of cellular biochemistry 115:1147-1158], were used as a positive control for HIF1α antibody. The CoCl2 was purchased from Sigma-Aldrich Corp (St. Louis, Mo.). Cell lysates were then evaluated for HIF1α (1:1000, BD Biosciences, San Jose, Calif.) or β-actin (1:10,000, Cell Signaling Technology) expression. Secondary antibodies were horseradish peroxidase (HRP)-conjugated goat anti-rabbit or goat anti-mouse IgG (both 1:5000, Sigma-Aldrich). Densitometry was performed using ImageJ (at the World Wide Web website of rsb.info.nih.gov/ij).

SMILES: [Cl-].[Cl-].[Co+2] [CoCl2, cobalt (II) chloride]
- HIF1α protein in HepG2 cell lysates: substantial amounts of HIF1α protein
